In US20030083324A1, “Photosensitizing ointment” (CeramOptec Industries, Inc., priority 2000, published 2003):

Details: especially when diluted with cream to <20% (w/w)
From the text: The phototoxic compounds can be mixed with the carrier in a solubilized form.

## COCCO [2-methoxy ethanol]
  toxicity to human skin: no toxicity
